Laboratory results as given in ChEMBL document CHEMBL1201862, “PubChem BioAssay data set” (2004).
Activity calls are given as the source filed them. No stated cut-off is given here; in the data, actives have a measured IC50 and inactives only a lower limit.

Target: Envelope glycoprotein gp160 (Human immunodeficiency virus 1, UniProt Q6QLK5)
Test: cell-free HIV fusion peptide-binding blockers – biochemical, uHTS, fluorescence dequenching, […] (AID 1986)

Envelope glycoprotein gp160, sequence (Q6QLK5 whole entry, the tested form may be a part): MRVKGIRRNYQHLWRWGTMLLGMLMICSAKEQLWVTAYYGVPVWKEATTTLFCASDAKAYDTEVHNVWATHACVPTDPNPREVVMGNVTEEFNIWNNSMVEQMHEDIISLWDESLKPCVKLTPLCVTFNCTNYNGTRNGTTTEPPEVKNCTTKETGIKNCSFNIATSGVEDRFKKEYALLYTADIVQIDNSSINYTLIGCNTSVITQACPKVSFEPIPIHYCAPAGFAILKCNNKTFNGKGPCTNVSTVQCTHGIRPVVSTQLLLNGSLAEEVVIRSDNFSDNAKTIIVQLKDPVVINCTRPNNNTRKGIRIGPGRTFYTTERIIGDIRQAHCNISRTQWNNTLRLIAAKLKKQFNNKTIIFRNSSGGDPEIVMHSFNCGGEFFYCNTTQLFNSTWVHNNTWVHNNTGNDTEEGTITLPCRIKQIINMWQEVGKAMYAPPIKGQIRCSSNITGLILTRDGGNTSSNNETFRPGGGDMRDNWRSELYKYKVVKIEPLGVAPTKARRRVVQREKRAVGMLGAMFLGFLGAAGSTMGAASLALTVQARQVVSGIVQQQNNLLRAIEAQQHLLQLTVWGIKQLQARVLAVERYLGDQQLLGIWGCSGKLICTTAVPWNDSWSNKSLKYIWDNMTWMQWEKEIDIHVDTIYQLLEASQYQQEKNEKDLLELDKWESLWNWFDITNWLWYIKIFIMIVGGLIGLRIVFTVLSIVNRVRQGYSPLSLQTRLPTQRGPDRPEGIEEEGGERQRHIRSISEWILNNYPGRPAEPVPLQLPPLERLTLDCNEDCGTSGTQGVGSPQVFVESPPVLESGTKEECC

| Structure (SMILES) | IC50 |
| --- | --- |
| CCOC(=O)c1c(N2C(=O)Nc3cc(Cl)c(Cl)cc3N2O)sc2c1CCCCC2 | 22.3 µM (active) |
| COc1ccc(C(=O)Nc2ccccc2C(=O)O)cc1NC(=O)C(c1ccccc1)c1ccccc1 | 14.1 µM (active) |
